Reference: patent US20210045383A1, “ORGANIC METABOLITE COMPOSITIONS AND METHODS OF USE AS MITICIDES FOR HONEY BEES” (priority 2018, published 2021)

What was measured:
Varroa destructor = assay: Test hives treated with miticide treatment strips; mite levels by sugar roll method and sticky board mite drops; conditions: for mite loads once treatment resumed: after skipped mid-summer treatment (mite counts above 3 per 100 bees in September); for mites loads in the treated hives: single treatments on a three-month schedule
honey bees = conditions: applied using the Dribble Method; cited from earlier work

Row | Compound | mite loads once treatment resumed (Varroa destructor) | mites loads in the treated hives (Varroa destructor) | bee mortality (honey bees)
1 | N[C@@H](CC(=O)O)C(=O)O [aspartic acid] | reduced mite loads to an acceptable level | zero | 
2 | O=C(O)C(=O)O [oxalic acid] |  |  | Increased bee mortality
3 | N[C@@H](CCC(=O)O)C(=O)O [glutamic acid] | reduced mite loads to an acceptable level | zero | 
